Some test systems named below: DLD-1; XF498; HOP-18; KM-20L2; DMS-273; SNB-78; DMS-114; M19-MEL; RXF 631.
Common to all, as to experiment: NCI tumour cell line growth inhibition, 48 h

Structures are written as SMILES.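 96-well plates; 48 h exposure; 5 concentrations. Endpoints by linear interpolation between flanking doses. Not reached: highest tested concentration assigned. The concentration for 50% growth inhibition is given as GI50.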 Activity calls are given as the source filed them. No stated cut-off is given here; in the data, active = GI50 up to about 1.1 µM and inactive = higher.

On to `Cc1c(C(=O)Nc2ccc(Cl)c(C(F)(F)F)c2)oc2cc(O)ccc2/c1=N\NC(N)=S`, for which the GI50 in the experiment with DLD-1, in the experiment with XF498, with HOP-18, in the experiment on KM-20L2, in the experiment on DMS-273 and with SNB-78 was > 100 µM (inactive) each time. For the same molecule, the GI50 with DMS-114 and with M19-MEL was > 100 µM (inactive) in each case.
For `Oc1cc2cc(-c3ccccc3)[nH]c2c2ccccc12`, the GI50 with DLD-1 is 32 µM (inactive); in the experiment with XF498, 1.63 µM (inactive); in the experiment with HOP-18, 32.7 µM (inactive); in the experiment on RXF 631 it was 22.7 µM (inactive); in the experiment with KM-20L2, > 96.2 µM (inactive); in the experiment on DMS-273, 0.592 µM (active). In addition, the figures for the GI50 with SNB-78, in the experiment on DMS-114 and in the experiment on M19-MEL were 54.6 µM (inactive), 13.6 µM (inactive) and 15.5 µM (inactive), respectively.
With `COc1cc(/C=N\c2ccc(C(C)C)cc2)cc(OC)c1OC`, the GI50 in the experiment on DLD-1 was > 100 µM (inactive); in the experiment on XF498 it was > 100 µM (inactive); in the experiment on HOP-18, > 100 µM (inactive); in the experiment on KM-20L2, > 100 µM (inactive); in the experiment with DMS-273 it was > 72.4 µM (inactive); in the experiment with SNB-78 it was > 100 µM (inactive). In addition, the GI50 is 49.5 µM (inactive) with DMS-114 and > 92 µM (inactive) with M19-MEL.
Turning to `CCC1c2cc3n(c(=O)c2COC1O)Cc1c-3nc2ccccc2c1Cl` (stereo not given), the GI50 is 99.1 µM (inactive) with DLD-1; > 100 µM (inactive) in the experiment with XF498; > 75.7 µM (inactive) in the experiment with HOP-18; > 69.7 µM (inactive) in the experiment on KM-20L2; 4.4 µM (inactive) with DMS-273; > 100 µM (inactive) with SNB-78. Moreover, the GI50 in the experiment with DMS-114 was 49.4 µM (inactive); with M19-MEL it was 69.3 µM (inactive).
Consider `CC(C)(C)C1CCC2(CC1)CCN(CCCN1CCOCC1)CC2`, for which the GI50 was 24.4 µM (inactive) with DLD-1; 14.4 µM (inactive) in the experiment on RXF 631; 2.18 µM (inactive) with KM-20L2; 19.3 µM (inactive) in the experiment on DMS-273; 38.5 µM (inactive) with SNB-78; 16.5 µM (inactive) in the experiment on DMS-114. Moreover, the GI50 in the experiment on M19-MEL is 12.5 µM (inactive).
For the molecule `COc1nc(OC)c2c(=O)oc(-c3ccccc3)cc2n1`, the GI50 with KM-20L2, in the experiment on DMS-273, in the experiment on SNB-78, in the experiment with DMS-114 and with M19-MEL was > 100 µM (inactive) throughout.
For `N=C(N)NNC(=O)CCCCCCCC(=O)NNC(=N)N`, the GI50 with DLD-1 was > 100 µM (inactive); in the experiment on RXF 631 it was > 100 µM (inactive); in the experiment with KM-20L2, > 100 µM (inactive); in the experiment on DMS-273 it was > 100 µM (inactive); in the experiment with SNB-78, > 100 µM (inactive); with DMS-114 it was 62.7 µM (inactive). In addition, the GI50 in the experiment with M19-MEL is > 100 µM (inactive).
Take `CCOC(=O)C1=C(C)NC(=O)NC1c1ccc(OC)cc1OC` (stereo not given): the GI50 in the experiment on DLD-1, in the experiment with XF498, in the experiment with HOP-18, with KM-20L2, with DMS-273 and with SNB-78 was > 100 µM (inactive) each time. Besides, the GI50 with DMS-114 and in the experiment with M19-MEL was > 100 µM (inactive) throughout.
As for `CCOC(=O)c1cc(/C=C/C(C)=C/C(=O)OC)oc1C`, the GI50 in the experiment on DLD-1, in the experiment on XF498, with KM-20L2, in the experiment on SNB-78, with DMS-114 and with M19-MEL was > 100 µM (inactive) each time.
With `CCOC(=O)C1=C(Nc2cccc3ccccc23)OCC1=O`, the GI50 with DLD-1, in the experiment on XF498, in the experiment on RXF 631, in the experiment on KM-20L2, in the experiment on DMS-273 and in the experiment on SNB-78 was > 100 µM (inactive) each time.
For `CC(=O)NC(CCCN(Cc1ccccc1)C(=O)NCCCl)C(=O)NCc1ccccc1` (stereo not given), the GI50 in the experiment with DLD-1, in the experiment on HOP-18, in the experiment with KM-20L2, in the experiment on DMS-273, in the experiment with SNB-78 and in the experiment on DMS-114 was > 100 µM (inactive) in each case. The GI50 in the experiment with M19-MEL was > 100 µM (inactive).
`Cc1ccc(S(=O)(=O)N/N=C(\c2nc3ccc(Cl)cc3nc2O)C(O)c2cccc([N+](=O)[O-])c2)cc1` (stereo not given): the GI50 with DLD-1, with XF498, in the experiment with HOP-18, in the experiment on RXF 631, with KM-20L2 and with DMS-273 was > 100 µM (inactive) in each case. Besides, the GI50 in the experiment on SNB-78, in the experiment with DMS-114 and in the experiment with M19-MEL was > 100 µM (inactive) throughout.
In the case of `c1ccc2c(c1)CCc1c(-c3n[nH]c4c3CCc3ccccc3-4)n[nH]c1-2`, the GI50 in the experiment on DLD-1, with XF498, in the experiment on HOP-18, in the experiment on RXF 631, in the experiment with KM-20L2 and in the experiment on DMS-273 was > 100 µM (inactive) in each case. Further, the GI50 with SNB-78, with DMS-114 and in the experiment with M19-MEL was > 100 µM (inactive) throughout.
As to `CCC1=CC2CN3Cn4c(c(COCc5c6n(c7ccccc57)CN5CC7C=C(CC)C5C6(C(=O)OC)C7)c5ccccc54)C(C(=O)OC)(C2)C13`, the GI50 in the experiment on DLD-1 is > 100 µM (inactive); with XF498, > 100 µM (inactive); in the experiment with KM-20L2, > 100 µM (inactive); with DMS-273, > 100 µM (inactive); in the experiment with DMS-114 it was > 100 µM (inactive); in the experiment with M19-MEL it was 47.2 µM (inactive).
On to `Nc1ccc(C(=O)NN2C(=O)C(Cl)C2c2ccc([N+](=O)[O-])cc2)cc1` (stereo not given), for which the GI50 is 9.79 µM (inactive) in the experiment on DLD-1; 13.4 µM (inactive) in the experiment on KM-20L2; 5.62 µM (inactive) with DMS-273; 22.6 µM (inactive) in the experiment with SNB-78; 2.84 µM (inactive) in the experiment on DMS-114; 14.6 µM (inactive) with M19-MEL.
As for `O=c1c2cc(Br)ccc2n(C2OC(CO)C(O)C(O)C2O)c(=S)n1-c1ccccc1` (stereo not given), the GI50 in the experiment on DLD-1 was > 100 µM (inactive); in the experiment on XF498, 50.5 µM (inactive); in the experiment with HOP-18, > 100 µM (inactive); in the experiment on KM-20L2, > 100 µM (inactive); with SNB-78, > 100 µM (inactive); with DMS-114, > 100 µM (inactive). In addition, in the experiment on M19-MEL, the GI50 was > 100 µM (inactive).
For the molecule `Cc1ccc([S+](c2ccccc2)c2cc(C)ccc2C)cc1` (stereo not given), the GI50 with DLD-1 is 1.81 µM (inactive); in the experiment with HOP-18 it was 1.38 µM (inactive); in the experiment with DMS-273 it was 0.859 µM (active); in the experiment with DMS-114, 1.08 µM (active); with M19-MEL it was 1.62 µM (inactive).
For `N=C(N)N/N=C/c1c[nH]c2ccccc12`, the GI50 was > 100 µM (inactive) in the experiment with DLD-1; > 100 µM (inactive) in the experiment with HOP-18; > 100 µM (inactive) in the experiment with KM-20L2; > 100 µM (inactive) in the experiment on DMS-273; > 100 µM (inactive) in the experiment on SNB-78; 81.8 µM (inactive) with DMS-114.
Turning to `CNCCCNc1c2ccccc2nc2cccc([N+](=O)[O-])c12`, the GI50 with DLD-1 is 0.00303 µM (active); in the experiment on XF498, 0.00247 µM (active); in the experiment with HOP-18 it was 0.0237 µM (active); in the experiment with RXF 631, 0.0286 µM (active); in the experiment on KM-20L2, 0.00416 µM (active); in the experiment on DMS-273, 0.0152 µM (active). Also, the GI50 in the experiment with SNB-78 was 0.00233 µM (active); in the experiment on DMS-114 it was 0.00221 µM (active); with M19-MEL it was 0.00387 µM (active).
Take `[O-][S+]1Nc2c(Cl)cc(Cl)c3c(Cl)cc(Cl)c(c23)N1`: the GI50 in the experiment with DLD-1 was 28.6 µM (inactive); with HOP-18, 34.1 µM (inactive); in the experiment on RXF 631 it was 31.8 µM (inactive); in the experiment on KM-20L2, 46.5 µM (inactive); in the experiment on DMS-273, 39.4 µM (inactive); in the experiment on DMS-114 it was 36.3 µM (inactive). Also, the GI50 with M19-MEL is 32.4 µM (inactive).
For the molecule `CCOC(=O)/C(=C\c1ccccc1)C(=O)O`, the GI50 with XF498, in the experiment on KM-20L2, in the experiment with DMS-273, in the experiment with SNB-78, with DMS-114 and in the experiment with M19-MEL was > 100 µM (inactive) throughout.
As to `CCCc1c2c([nH]c(=O)c1C)C(=O)c1[nH]c(=O)c(C)c(CCC)c1C2=O`, the GI50 in the experiment on HOP-18 was > 100 µM (inactive); with SNB-78, 30.3 µM (inactive); with DMS-114, 2.51 µM (inactive); in the experiment with M19-MEL, 2.21 µM (inactive).
`CCC12C=CCN3CC[C@]4(C(=C(C(=O)OC)[C@@H]1Nc1ccn(C5OC(COC(C)=O)C(OC(C)=O)C5OC(C)=O)c(=O)n1)Nc1ccccc14)C32` (stereo not given in full): the GI50 in the experiment with DLD-1 was 4.53 µM (inactive); in the experiment on XF498, 5.74 µM (inactive); with HOP-18, 6.92 µM (inactive); in the experiment with KM-20L2 it was 4.66 µM (inactive); in the experiment with DMS-273, 4.28 µM (inactive); in the experiment on SNB-78, 5.42 µM (inactive). In addition, the GI50 with M19-MEL was 3.98 µM (inactive).
Consider `CO[C@H](C(=O)O[C@H]1C(=O)N2CC[C@@H]3CCC[C@H]1C32C)c1ccccc1` (stereo not given in full), for which the GI50 with DLD-1, in the experiment with KM-20L2, with SNB-78, with DMS-114 and in the experiment with M19-MEL was > 100 µM (inactive) in each case.
Turning to `O=C(/C=C/c1ccc[nH]1)c1ccccc1`, the GI50 with DLD-1 is > 100 µM (inactive); in the experiment with HOP-18, 40.2 µM (inactive); with KM-20L2, > 100 µM (inactive); in the experiment with DMS-273, > 100 µM (inactive); with SNB-78, > 100 µM (inactive); with DMS-114 it was > 100 µM (inactive). For the same molecule, in the experiment with M19-MEL, the GI50 was > 100 µM (inactive).
Consider `Nc1cccc2c1C(=O)c1cccc(N)c1C2=O`, for which the GI50 in the experiment on DLD-1 is > 100 µM (inactive); in the experiment with XF498 it was 19.4 µM (inactive); with RXF 631 it was > 100 µM (inactive); in the experiment on KM-20L2, > 100 µM (inactive); in the experiment with DMS-273, > 100 µM (inactive); in the experiment on SNB-78, > 100 µM (inactive). Also, in the experiment on M19-MEL, the GI50 was > 100 µM (inactive).
On to `Nc1n[n+]([O-])c2ccccc2[n+]1[O-]` [TIRAPAZAMINE], for which the GI50 was 44.4 µM (inactive) in the experiment with XF498; > 100 µM (inactive) in the experiment with RXF 631; 52.2 µM (inactive) in the experiment with DMS-273; > 100 µM (inactive) with SNB-78; 44.4 µM (inactive) in the experiment on DMS-114; 95.9 µM (inactive) with M19-MEL.
